According to ChEMBL document CHEMBL2417394, “Exquisite selectivity for human toll-like receptor 8 in substituted furo[2,3-c]quinolines” (J Med Chem, 2013):
The source made the active and inactive calls. The rule behind the calls is not given here.

Columns and labels:
Type in all cases: cell-based
[1] = molecular target: T1, Toll-like receptor 8 (Homo sapiens) (UniProt Q9NR97); assay: Modulation of human TLR8 expressed in HEK293 cells co-transfected with MD2 and sAP assessed as induction of NF-kappaB activity by reporter gene assay
T1 sequence (whole entry): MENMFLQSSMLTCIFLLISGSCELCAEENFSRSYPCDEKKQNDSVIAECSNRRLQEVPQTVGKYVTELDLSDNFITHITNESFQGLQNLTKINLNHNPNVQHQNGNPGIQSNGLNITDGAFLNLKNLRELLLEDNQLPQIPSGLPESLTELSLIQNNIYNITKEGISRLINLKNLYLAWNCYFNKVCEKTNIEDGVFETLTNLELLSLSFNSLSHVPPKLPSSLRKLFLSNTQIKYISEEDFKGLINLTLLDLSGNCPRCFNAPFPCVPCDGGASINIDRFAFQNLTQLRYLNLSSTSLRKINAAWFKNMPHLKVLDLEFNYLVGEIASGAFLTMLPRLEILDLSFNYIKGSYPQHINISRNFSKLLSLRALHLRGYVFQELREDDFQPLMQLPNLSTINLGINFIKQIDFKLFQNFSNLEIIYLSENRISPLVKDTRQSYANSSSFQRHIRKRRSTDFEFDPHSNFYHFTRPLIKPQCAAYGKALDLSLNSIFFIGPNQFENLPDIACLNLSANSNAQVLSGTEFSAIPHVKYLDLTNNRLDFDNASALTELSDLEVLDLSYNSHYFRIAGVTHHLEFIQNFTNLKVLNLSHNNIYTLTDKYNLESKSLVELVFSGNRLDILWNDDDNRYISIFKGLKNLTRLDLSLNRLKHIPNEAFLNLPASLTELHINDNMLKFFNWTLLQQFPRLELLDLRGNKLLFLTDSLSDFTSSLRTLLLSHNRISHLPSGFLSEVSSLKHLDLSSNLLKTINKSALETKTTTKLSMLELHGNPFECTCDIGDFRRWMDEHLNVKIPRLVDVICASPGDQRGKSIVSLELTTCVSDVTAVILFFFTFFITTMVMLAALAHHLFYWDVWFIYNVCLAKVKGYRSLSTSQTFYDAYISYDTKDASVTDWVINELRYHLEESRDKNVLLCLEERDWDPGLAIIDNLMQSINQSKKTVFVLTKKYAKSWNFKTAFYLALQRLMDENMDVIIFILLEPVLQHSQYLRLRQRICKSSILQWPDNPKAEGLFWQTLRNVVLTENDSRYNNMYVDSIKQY

[2] = molecular target: Toll-like receptor 4 (Homo sapiens) (UniProt O00206); assay: Modulation of human TLR4 expressed in HEK293 cells co-transfected with MD2 and sAP assessed as induction of NF-kappaB activity by reporter gene assay
[3] = molecular target: Toll-like receptor 3 (Homo sapiens) (UniProt O15455); assay: Modulation of human TLR3 expressed in HEK293 cells co-transfected with MD2 and sAP assessed as induction of NF-kappaB activity by reporter gene assay
[4] = molecular target: Toll-like receptor 2 (Homo sapiens) (UniProt O60603); assay: Modulation of human TLR2 expressed in HEK293 cells co-transfected with MD2 and sAP assessed as induction of NF-kappaB activity by reporter gene assay
[5] = molecular target: T2, Toll-like receptor 7 (Homo sapiens) (UniProt Q9NYK1); assay: Modulation of human TLR7 expressed in HEK293 cells co-transfected with MD2 and sAP assessed as induction of NF-kappaB activity by reporter gene assay
T2 sequence (whole entry): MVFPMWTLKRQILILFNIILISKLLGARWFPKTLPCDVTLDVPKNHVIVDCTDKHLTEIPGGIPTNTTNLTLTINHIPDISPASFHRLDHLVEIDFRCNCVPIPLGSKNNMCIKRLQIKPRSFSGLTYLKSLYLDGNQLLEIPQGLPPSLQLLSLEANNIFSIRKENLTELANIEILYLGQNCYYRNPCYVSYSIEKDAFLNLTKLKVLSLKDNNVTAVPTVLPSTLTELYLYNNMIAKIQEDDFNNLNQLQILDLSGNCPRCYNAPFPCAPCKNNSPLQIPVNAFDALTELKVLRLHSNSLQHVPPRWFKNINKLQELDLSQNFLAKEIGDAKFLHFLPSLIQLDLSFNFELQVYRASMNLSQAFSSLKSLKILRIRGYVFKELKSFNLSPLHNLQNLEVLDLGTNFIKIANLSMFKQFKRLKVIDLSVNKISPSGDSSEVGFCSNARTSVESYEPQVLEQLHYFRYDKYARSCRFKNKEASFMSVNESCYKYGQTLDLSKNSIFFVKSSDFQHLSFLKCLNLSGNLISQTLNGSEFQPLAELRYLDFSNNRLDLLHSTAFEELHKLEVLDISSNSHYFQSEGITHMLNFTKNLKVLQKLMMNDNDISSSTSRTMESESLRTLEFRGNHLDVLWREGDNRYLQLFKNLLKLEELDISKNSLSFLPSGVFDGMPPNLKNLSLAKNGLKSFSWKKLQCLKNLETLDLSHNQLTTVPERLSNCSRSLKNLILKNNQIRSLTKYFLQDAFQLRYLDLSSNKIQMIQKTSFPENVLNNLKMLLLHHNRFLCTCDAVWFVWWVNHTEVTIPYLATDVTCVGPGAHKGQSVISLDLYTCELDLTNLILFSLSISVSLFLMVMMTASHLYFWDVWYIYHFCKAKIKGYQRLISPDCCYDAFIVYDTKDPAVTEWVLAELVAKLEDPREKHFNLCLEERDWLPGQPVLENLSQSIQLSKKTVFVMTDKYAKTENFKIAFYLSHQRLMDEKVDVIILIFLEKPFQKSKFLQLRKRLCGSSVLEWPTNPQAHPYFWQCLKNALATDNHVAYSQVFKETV

Chain of Toll-like receptor 4 (Homo sapiens) (O00206 whole entry): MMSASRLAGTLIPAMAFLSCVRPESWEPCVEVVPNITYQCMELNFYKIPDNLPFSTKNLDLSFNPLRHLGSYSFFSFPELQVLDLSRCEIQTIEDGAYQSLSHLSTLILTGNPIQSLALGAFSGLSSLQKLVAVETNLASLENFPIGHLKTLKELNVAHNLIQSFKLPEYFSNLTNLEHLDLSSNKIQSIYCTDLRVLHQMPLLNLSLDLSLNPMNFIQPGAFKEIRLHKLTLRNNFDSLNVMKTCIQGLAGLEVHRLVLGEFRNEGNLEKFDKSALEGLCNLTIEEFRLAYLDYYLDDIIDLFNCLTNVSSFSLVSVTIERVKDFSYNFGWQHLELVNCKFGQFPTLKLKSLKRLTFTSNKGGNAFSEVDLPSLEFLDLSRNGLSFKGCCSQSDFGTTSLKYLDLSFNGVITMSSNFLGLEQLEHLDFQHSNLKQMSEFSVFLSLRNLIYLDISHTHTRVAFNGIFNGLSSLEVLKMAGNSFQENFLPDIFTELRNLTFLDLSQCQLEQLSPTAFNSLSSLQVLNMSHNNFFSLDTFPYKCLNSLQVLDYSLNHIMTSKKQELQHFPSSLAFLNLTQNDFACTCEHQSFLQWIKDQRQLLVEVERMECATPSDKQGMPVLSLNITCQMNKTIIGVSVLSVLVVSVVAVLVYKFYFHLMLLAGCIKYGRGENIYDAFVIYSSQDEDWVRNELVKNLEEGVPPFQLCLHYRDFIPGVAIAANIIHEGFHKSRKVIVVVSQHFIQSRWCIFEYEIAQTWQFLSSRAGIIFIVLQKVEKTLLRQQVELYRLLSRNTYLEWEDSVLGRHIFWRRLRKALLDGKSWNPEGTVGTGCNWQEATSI
Chain of Toll-like receptor 3 (Homo sapiens) (O15455 whole entry): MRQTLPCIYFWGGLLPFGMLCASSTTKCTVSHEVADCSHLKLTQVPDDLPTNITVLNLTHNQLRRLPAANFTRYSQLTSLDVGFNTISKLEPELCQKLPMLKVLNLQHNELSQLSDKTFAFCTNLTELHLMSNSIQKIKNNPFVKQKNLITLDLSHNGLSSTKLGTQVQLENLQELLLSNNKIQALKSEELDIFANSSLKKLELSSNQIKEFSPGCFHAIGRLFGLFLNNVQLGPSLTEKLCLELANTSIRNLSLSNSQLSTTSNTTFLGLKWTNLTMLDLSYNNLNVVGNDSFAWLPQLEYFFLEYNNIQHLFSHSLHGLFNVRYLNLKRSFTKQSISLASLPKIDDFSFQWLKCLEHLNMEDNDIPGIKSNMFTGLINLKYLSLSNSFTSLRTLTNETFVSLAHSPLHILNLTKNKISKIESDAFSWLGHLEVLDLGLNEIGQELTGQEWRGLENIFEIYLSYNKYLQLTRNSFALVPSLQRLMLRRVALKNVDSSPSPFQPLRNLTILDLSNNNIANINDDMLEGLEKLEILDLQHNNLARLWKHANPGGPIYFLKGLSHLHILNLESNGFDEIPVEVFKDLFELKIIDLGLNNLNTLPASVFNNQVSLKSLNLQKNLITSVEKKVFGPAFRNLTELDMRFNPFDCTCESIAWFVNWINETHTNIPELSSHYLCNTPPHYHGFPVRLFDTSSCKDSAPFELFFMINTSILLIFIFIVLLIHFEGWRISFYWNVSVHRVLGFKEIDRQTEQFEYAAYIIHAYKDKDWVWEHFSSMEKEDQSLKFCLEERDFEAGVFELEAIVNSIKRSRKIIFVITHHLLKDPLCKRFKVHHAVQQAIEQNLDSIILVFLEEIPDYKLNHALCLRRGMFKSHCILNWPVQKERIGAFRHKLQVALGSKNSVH
Chain of Toll-like receptor 2 (Homo sapiens) (O60603 whole entry): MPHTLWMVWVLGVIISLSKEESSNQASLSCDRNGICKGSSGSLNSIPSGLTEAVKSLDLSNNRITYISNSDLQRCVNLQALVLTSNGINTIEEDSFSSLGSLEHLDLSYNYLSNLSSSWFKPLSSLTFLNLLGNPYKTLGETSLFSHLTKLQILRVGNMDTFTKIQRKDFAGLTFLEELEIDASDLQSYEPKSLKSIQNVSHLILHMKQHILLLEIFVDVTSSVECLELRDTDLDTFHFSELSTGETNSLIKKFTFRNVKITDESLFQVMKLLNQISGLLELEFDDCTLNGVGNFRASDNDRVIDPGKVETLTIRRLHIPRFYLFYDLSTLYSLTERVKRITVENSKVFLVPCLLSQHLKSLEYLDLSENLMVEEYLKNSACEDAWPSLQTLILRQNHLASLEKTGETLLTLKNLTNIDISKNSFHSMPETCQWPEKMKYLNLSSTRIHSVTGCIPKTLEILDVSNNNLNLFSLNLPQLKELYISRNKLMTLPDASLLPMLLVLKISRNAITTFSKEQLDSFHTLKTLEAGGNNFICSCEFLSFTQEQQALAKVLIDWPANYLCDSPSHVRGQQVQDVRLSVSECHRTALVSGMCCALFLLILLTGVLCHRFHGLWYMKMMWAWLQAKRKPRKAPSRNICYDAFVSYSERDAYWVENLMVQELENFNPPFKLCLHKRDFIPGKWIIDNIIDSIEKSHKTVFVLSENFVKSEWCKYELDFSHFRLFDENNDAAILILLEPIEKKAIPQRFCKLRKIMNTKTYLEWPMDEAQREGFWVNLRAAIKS

Compound | Activity [1] | Activity [2] | Activity [3] | Activity [4] | Activity [5]
CCCCc1cc2c(nc(N)c3ccccc32)o1 | inactive | inactive | inactive | inactive | inactive
NCCc1cc2c(o1)c(N)nc1ccccc12 | Active | Active | Active | Active | Active
